# Data taken from ChEMBL document CHEMBL1201862, “PubChem BioAssay data set” (2004).
#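 Five concentrations, 48 hours, 96-well plates. GI50 = concentration required for 50% inhibition of growth.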 Calls of active or inactive are those of the source. No stated cut-off is given here; in the data, active = GI50 up to about 1.1 µM and inactive = higher.
# Assays:
# Test in all cases: NCI tumour cell line growth inhibition, 48 h
# [1] = test system: HOP-92
# [2] = test system: OVCAR-5
# [3] = test system: UACC-257
# [4] = test system: IGROV-1
# [5] = test system: XF498
# [6] = test system: SNB-78
# [7] = test system: SK-MEL-5
# [8] = test system: LXFL 529
# [9] = test system: M19-MEL
# [10] = test system: NCI-H226
# [11] = test system: OVCAR-3
# [12] = test system: OVCAR-4
# [13] = test system: HL-60
# [14] = test system: HCT-116
# [15] = test system: SF-539
# [16] = test system: A549
# [17] = test system: SF-268
# [18] = test system: COLO 205
# [19] = test system: ACHN
# [20] = test system: SK-OV-3
# [21] = test system: OVCAR-8
# [22] = test system: U-251
# [23] = test system: A498
# [24] = test system: NCI-H23
# [25] = test system: SNB-19
# [26] = test system: NCI-H460
# [27] = test system: RXF 393
# [28] = test system: EKVX
# [29] = test system: HT-29
# [30] = test system: SR
# [31] = test system: DMS-273
# [32] = test system: HOP-62
# [33] = test system: MOLT-4
# [34] = test system: SW-620
# [35] = test system: DMS-114
# [36] = test system: HCT-15
# [37] = test system: DLD-1
# [38] = test system: SF-295
# [39] = test system: SNB-75
# [40] = test system: SN12C
# [41] = test system: SK-MEL-2
# [42] = test system: M14
# [43] = test system: KM12
# [44] = test system: HCC 2998
# [45] = test system: SK-MEL-28
# [46] = test system: CAKI-1
# [47] = test system: KM-20L2
# [48] = test system: HOP-18
# [49] = test system: Malme-3M
# [50] = test system: TK-10
# [51] = test system: UACC-62
# [52] = test system: NCI-H522
# [53] = test system: 786-0
# [54] = test system: UO-31
# [55] = test system: K562
# [56] = test system: CCRF-CEM
# [57] = test system: LOX IMVI
# [58] = test system: RPMI-8226
structure (smiles),measurement,setting,value
CCCCCCCCCCCCCCCCCCC1=C(O)C(=O)C=C(OC)C1=O,GI50,[1],80.4 µM (inactive)
same,GI50,[2],39.5 µM (inactive)
same,GI50,[3],78.2 µM (inactive)
same,GI50,[4],38.8 µM (inactive)
same,GI50,[5],> 100 µM (inactive)
same,GI50,[6],71.9 µM (inactive)
same,GI50,[7],40 µM (inactive)
same,GI50,[8],29.6 µM (inactive)
same,GI50,[9],39.1 µM (inactive)
same,GI50,[10],62.5 µM (inactive)
same,GI50,[11],41.8 µM (inactive)
same,GI50,[12],46.7 µM (inactive)
same,GI50,[13],22.5 µM (inactive)
same,GI50,[14],43.7 µM (inactive)
same,GI50,[15],45.1 µM (inactive)
same,GI50,[16],46.8 µM (inactive)
same,GI50,[17],38.5 µM (inactive)
same,GI50,[18],48.5 µM (inactive)
same,GI50,[19],28.7 µM (inactive)
same,GI50,[20],> 100 µM (inactive)
same,GI50,[21],32.4 µM (inactive)
same,GI50,[22],39 µM (inactive)
same,GI50,[23],> 100 µM (inactive)
same,GI50,[24],26 µM (inactive)
same,GI50,[25],61.4 µM (inactive)
same,GI50,[26],88.7 µM (inactive)
same,GI50,[27],43.6 µM (inactive)
same,GI50,[28],41.7 µM (inactive)
same,GI50,[29],88.9 µM (inactive)
same,GI50,[30],43.8 µM (inactive)
same,GI50,[31],55.2 µM (inactive)
same,GI50,[32],34.3 µM (inactive)
same,GI50,[33],21.1 µM (inactive)
same,GI50,[34],51.4 µM (inactive)
same,GI50,[35],21.7 µM (inactive)
same,GI50,[36],29.5 µM
same,GI50,[37],47.3 µM (inactive)
same,GI50,[38],36.5 µM (inactive)
same,GI50,[39],30.6 µM (inactive)
same,GI50,[40],45.4 µM (inactive)
same,GI50,[41],26.5 µM (inactive)
same,GI50,[42],53.2 µM (inactive)
same,GI50,[43],35.2 µM (inactive)
same,GI50,[44],38.3 µM (inactive)
same,GI50,[45],36.4 µM (inactive)
same,GI50,[46],39.5 µM (inactive)
same,GI50,[47],42.9 µM (inactive)
same,GI50,[48],43 µM (inactive)
same,GI50,[49],64.9 µM (inactive)
same,GI50,[50],40.4 µM (inactive)
same,GI50,[51],27.8 µM (inactive)
same,GI50,[52],28.4 µM (inactive)
same,GI50,[53],34.3 µM (inactive)
same,GI50,[54],85.5 µM (inactive)
CC1=CCC2(C#N)CCC1C2O (centres undefined),GI50,[2],> 100 µM (inactive)
same,GI50,[3],> 100 µM (inactive)
same,GI50,[4],> 100 µM (inactive)
same,GI50,[5],> 100 µM (inactive)
same,GI50,[6],> 100 µM (inactive)
same,GI50,[7],> 100 µM (inactive)
same,GI50,[8],> 100 µM (inactive)
same,GI50,[9],> 100 µM (inactive)
same,GI50,[10],> 100 µM (inactive)
same,GI50,[11],> 100 µM (inactive)
same,GI50,[12],> 100 µM (inactive)
same,GI50,[13],> 100 µM (inactive)
same,GI50,[14],> 100 µM (inactive)
same,GI50,[15],> 100 µM (inactive)
same,GI50,[16],> 100 µM (inactive)
same,GI50,[17],> 100 µM (inactive)
same,GI50,[18],> 100 µM (inactive)
same,GI50,[19],> 100 µM (inactive)
same,GI50,[20],> 100 µM (inactive)
same,GI50,[21],> 100 µM (inactive)
same,GI50,[22],> 100 µM (inactive)
same,GI50,[23],> 100 µM (inactive)
same,GI50,[25],> 100 µM (inactive)
same,GI50,[26],> 100 µM (inactive)
same,GI50,[27],> 100 µM (inactive)
same,GI50,[28],> 100 µM (inactive)
same,GI50,[29],> 100 µM (inactive)
same,GI50,[30],> 100 µM (inactive)
same,GI50,[31],19.7 µM (inactive)
same,GI50,[32],> 100 µM (inactive)
same,GI50,[33],> 100 µM (inactive)
same,GI50,[35],> 100 µM (inactive)
same,GI50,[36],> 100 µM
same,GI50,[37],> 100 µM (inactive)
same,GI50,[38],> 100 µM (inactive)
same,GI50,[39],> 100 µM (inactive)
same,GI50,[40],> 100 µM (inactive)
same,GI50,[41],> 100 µM (inactive)
same,GI50,[42],> 100 µM (inactive)
same,GI50,[43],> 100 µM (inactive)
same,GI50,[44],> 100 µM (inactive)
same,GI50,[45],> 100 µM (inactive)
same,GI50,[55],> 100 µM (inactive)
same,GI50,[46],> 100 µM (inactive)
same,GI50,[56],> 100 µM (inactive)
same,GI50,[47],39.4 µM (inactive)
same,GI50,[48],> 100 µM (inactive)
same,GI50,[49],> 100 µM (inactive)
same,GI50,[50],> 100 µM (inactive)
same,GI50,[51],> 100 µM (inactive)
same,GI50,[52],> 100 µM (inactive)
same,GI50,[57],> 100 µM (inactive)
same,GI50,[53],64.1 µM (inactive)
same,GI50,[54],> 100 µM (inactive)
same,GI50,[58],> 100 µM (inactive)
NCCSc1nc(N)c2ncn(C3OC(CO)C(O)C3O)c2n1 (centres undefined),GI50,[1],> 100 µM (inactive)
same,GI50,[2],> 100 µM (inactive)
same,GI50,[3],> 100 µM (inactive)
same,GI50,[4],> 100 µM (inactive)
same,GI50,[5],> 100 µM (inactive)
same,GI50,[6],> 100 µM (inactive)
same,GI50,[7],> 100 µM (inactive)
same,GI50,[9],> 100 µM (inactive)
same,GI50,[10],> 100 µM (inactive)
same,GI50,[11],> 100 µM (inactive)
same,GI50,[12],> 100 µM (inactive)
same,GI50,[13],> 100 µM (inactive)
same,GI50,[14],> 100 µM (inactive)
same,GI50,[15],> 100 µM (inactive)
same,GI50,[16],> 100 µM (inactive)
same,GI50,[17],> 100 µM (inactive)
same,GI50,[18],> 100 µM (inactive)
same,GI50,[19],> 100 µM (inactive)
same,GI50,[20],> 100 µM (inactive)
same,GI50,[21],> 100 µM (inactive)
same,GI50,[22],> 100 µM (inactive)
same,GI50,[23],> 100 µM (inactive)
same,GI50,[24],> 100 µM (inactive)
same,GI50,[25],> 100 µM (inactive)
same,GI50,[26],> 100 µM (inactive)
same,GI50,[29],> 100 µM (inactive)
same,GI50,[30],> 100 µM (inactive)
same,GI50,[31],> 100 µM (inactive)
same,GI50,[32],> 100 µM (inactive)
same,GI50,[33],> 100 µM (inactive)
same,GI50,[34],> 100 µM (inactive)
same,GI50,[35],> 100 µM (inactive)
same,GI50,[36],> 100 µM
same,GI50,[37],> 100 µM (inactive)
same,GI50,[38],> 100 µM (inactive)
same,GI50,[39],> 100 µM (inactive)
same,GI50,[40],> 100 µM (inactive)
same,GI50,[41],> 100 µM (inactive)
same,GI50,[42],> 100 µM (inactive)
same,GI50,[43],> 100 µM (inactive)
same,GI50,[44],> 100 µM (inactive)
same,GI50,[45],> 100 µM (inactive)
same,GI50,[55],> 100 µM (inactive)
same,GI50,[46],> 100 µM (inactive)
same,GI50,[56],> 100 µM (inactive)
same,GI50,[47],> 100 µM (inactive)
same,GI50,[48],> 100 µM (inactive)
same,GI50,[49],> 100 µM (inactive)
same,GI50,[50],> 100 µM (inactive)
same,GI50,[51],> 100 µM (inactive)
same,GI50,[52],> 100 µM (inactive)
same,GI50,[57],> 100 µM (inactive)
same,GI50,[53],> 100 µM (inactive)
same,GI50,[54],> 100 µM (inactive)
same,GI50,[58],> 100 µM (inactive)
